Measured values from patent US20240058450A1, “BCL-XL Inhibitory Compounds Having Low Cell Permeability and Antibody Drug Conjugates Including the Same” (AbbVie Inc., priority 2014, published 2024).
Where two headings read alike, the source gives them in different places.

Key:
[1] = tested on: permeabilized Bcl-xL dependent Molt-4 cells; assay: Cytochrome C release in selectively (digitonin) permeabilized Molt-4 cells; format: cell-based, human; details: 4 h treatment, read-out: Molt-4 Permeabilized Cyt C Release
Text: The permeabilization of the mitochondrial outer membrane to release proteins from the intermembrane space into the cytosol is a pivotal event in the process of apoptosis. Specifically, the release of cytochrome C triggers the formation of the apoptosome which, in turn, results in caspase activation and other events that will commit the cell to undergo programmed cell death (Goldstein el al., 2005, Cell Death and Differentiation 12:453). The process of mitochondrial outer membrane permeabilization (MOMP) is controlled by the Bcl-2 family members. It is promoted by the multidomain pro-apoptotic proteins Bax and Bak which, upon activation, oligomerize on the outer mitochondrial membrane and form pores to ultimately release cytochrome C. This action is antagonized by the antiapoptotic members, including Bcl-2 and Bcl-xL. Compounds that are capable of inhibiting Bcl-2 or Bcl-xL, for example, in cells that depend upon these proteins for survival, can cause activation of Bax and or Bak, MOMP, release of cytochrome C and the mentioned downstream steps in the apoptotic process. This process of cytochrome C release can be measured in cells via Western blot of both mitochrondrial and cytosolic fractions, and can be used a proxy measurement of apoptosis in cells.
As a means of detecting the ability of a Bcl-xL inhibitor with low cell-permeability to cause release of cytochrome C, the cells can be treated with an agent that causes selective pore formation in the plasma membrane, but not the mitochondrial membrane. Specifically, the cholesterol/phospholipid ratio is much higher in the plasma membrane than the mitochondrial membrane. […] This agent forms insoluble complexes with cholesterol leading to the segregation of cholesterol from its normal phospholipid binding sites. This action, in turn, leads to the formation of holes about 40-50 Å wide in the lipid bilayer. Once the plasma membrane is permeabilized, cytosolic components able to pass over digitonin-formed holes can be washed out, including the cytochrome C that was released from mitochondria to cytosol in the apoptotic cells ((Campos, 2006, Cytometry A 69(6):515-523)).
To determine if Bcl-xL inhibitors were inducing cell death through apoptosis, cytochrome C release was measured in Bcl-xL dependent Molt-4 cells following treatment Specifically, 1×10^6 cells were treated for 4 h (37° C., 5% CO2) with the test compounds in half-log dilutions starting at 3.0 μM and ending at 0.01 μM. Cells were then processed as described in Chen et al., 2011, Mol. Cancer Ther. 10:2340-2350 (the Bcl-2/Bcl-X(L)/Bcl-w inhibitor, navitoclax, enhances the activity of chemotherapeutic agents in vitro and in vivo.).

[2] = tested on: Molt-4 human acute lymphoblastic leukemia cells; assay: Molt-4 cell viability assay (CellTiter-Glo, 48 hours, 10% HS); format: cell-based; details: non-permeabilized cells
Summary of the method: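 Cells were seeded at 12,500 per well in medium with 10% human serum and exposed to a 3-fold compound dilution series from 10 μM to 0.0005 μM. After 48 h, viable cells were quantified by CellTiter-Glo luminescence. Each concentration was run in duplicate on at least 3 occasions.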

Bcl-xL = Bcl-xL (Homo sapiens, UniProt Q07817); assay: Time Resolved-Fluorescence Resonance Energy Transfer (TR-FRET) binding assay, competition with probe F-Bak
Bcl-xL, sequence (Q07817 whole entry): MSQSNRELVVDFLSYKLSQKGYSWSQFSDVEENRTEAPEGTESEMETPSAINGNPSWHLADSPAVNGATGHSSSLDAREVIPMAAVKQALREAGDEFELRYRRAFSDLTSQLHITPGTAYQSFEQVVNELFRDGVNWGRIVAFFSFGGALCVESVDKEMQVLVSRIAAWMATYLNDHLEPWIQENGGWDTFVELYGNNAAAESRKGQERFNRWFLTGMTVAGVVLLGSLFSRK
Summary of the method: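 Compounds compete with F-Bak probe for GST-Bcl-xL detected by Tb-anti-GST antibody. Serial dilutions from 50 μM (2× stock) incubated 2 h at room temperature, then read at 340 nm excitation, 520 and 495 nm emission. Ki by Wang's equation, tested without and with 1% human serum.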

[3] = in the presence of 1% HS, read-out: Bcl-xL Binding Ki (nM, 1% HS)
[4] = without HS, read-out: Bcl-xL Binding Ki

| SMILES | EC50 ([1]; Homo sapiens, MOLT-4, 4 h) | EC50 ([2]; Homo sapiens, MOLT-4, 48 h) | Ki (Bcl-xL; [3]) | Ki (Bcl-xL; [4]) | EC50 [1] | EC50 [2] |
| --- | --- | --- | --- | --- | --- | --- |
| Cc1c(-c2ccc(N3CCc4cccc(C(=O)Nc5nc6ccccc6s5)c4C3)nc2C(=O)O)cnn1CC12CC3(C)CC(C)(C1)CC(OCCN(CCS(=O)(=O)O)C(=O)[C@@H](N)CC(=O)O)(C3)C2 [Example 1.44, 3-{1-[(3-{2-[L-alpha-aspartyl(2-sulfoethyl)amino]ethoxy}-5,7-dimethyltricyclo[3.3.1.1^3,7]dec-1-yl)methyl]-5-methyl-1H-pyrazol-4-yl}-6-[8-(1,3-benzothiazol-2-ylcarbamoyl)-3,4-dihydroisoquinolin-2 (1H)-yl]pyridine-2-carboxylic acid] | < 0.5 nM | 1260 nM | 0.282 nM | < 0.001 nM | – | – |
| Cc1c(-c2ccc(N3CCc4cccc(C(=O)Nc5nc6ccccc6s5)c4C3)nc2C(=O)O)cnn1CC12CC3(C)CC(C)(C1)CC(OCCN(C)C(=O)[C@@H](N)CCCC[N+](C)(C)C)(C3)C2 [Example 1.29, N-[(5S)-5-amino-6-{[2-({3-[(4-{6-[8-(1,3-benzothiazol-2-ylcarbamoyl)-3,4-dihydroisoquinolin-2 (1H)-yl]-2-carboxypyridin-3-yl}-5-methyl-1H-pyrazol-1-yl)methyl]-5,7-dimethyltricyclo[3.3.1.1^3,7]dec-1-yl}oxy)ethyl](methyl)amino}-6-oxohexyl]-N,N-dimethylmethanaminium] | – | – | 0.033 nM | 0.009 nM | < 0.5 nM | 935 nM |
| Cc1c(-c2ccc(N3CCc4cccc(C(=O)Nc5nc6ncccc6s5)c4C3)nc2C(=O)O)cnn1CC12CC3(C)CC(C)(C1)CC(OCCNCCCP(=O)(O)O)(C3)C2 [Example 1.39, 3-{1-[(3,5-dimethyl-7-{2-[(3-phosphonopropyl)amino]ethoxy}tricyclo[3.3.1.1^3,7]dec-1-yl)methyl]-5-methyl-1H-pyrazol-4-yl}-6-[8-([1,3]thiazolo[4,5-b]pyridin-2-ylcarbamoyl)-3,4-dihydroisoquinolin-2 (1H)-yl]pyridine-2-carboxylic acid] | < 0.5 nM | 1590 nM | 0.174 nM | 0.018 nM | – | – |
| Cc1c(-c2ccc(N3CCc4cccc(C(=O)Nc5nc6ccccc6s5)c4C3)nc2C(=O)O)cnn1CC12CC3(C)CC(C)(C1)CC(OCCN(CCCP(=O)(O)O)C1CCNCC1)(C3)C2 [Example 1.26, 6-[8-(1,3-benzothiazol-2-ylcarbamoyl)-3,4-dihydroisoquinolin-2 (1H)-yl]-3-{1-[(3,5-dimethyl-7-{2-[(3-phosphonopropyl)(piperidin-4-yl)amino]ethoxy}tricyclo[3.3.1.1^3,7]dec-1-yl)methyl]-5-methyl-1H-pyrazol-4-yl}pyridine-2-carboxylic acid] | < 0.5 nM | 2330 nM | 0.11 nM | < 0.001 nM | – | – |
| Cc1c(-c2ccc(-c3ccc4c(c3)N(C(=O)Nc3nc5ccccc5s3)CCC4)nc2C(=O)O)cnn1CC12CC3(C)CC(C)(C1)CC(OCCNCCP(=O)(O)O)(C3)C2 [Example 1.20, 6-[1-(1,3-benzothiazol-2-ylcarbamoyl)-1,2,3,4-tetrahydroquinolin-7-yl]-3-{1-[(3,5-dimethyl-7-(2-[(2-phosphonoethyl)amino]ethoxy}tricyclo[3.3.1.1^3,7]dec-1-yl)methyl]-5-methyl-1H-pyrazol-4-yl}pyridine-2-carboxylic acid] | < 0.5 nM | 774 nM | 0.47 nM | < 0.001 nM | – | – |
| Cc1c(-c2ccc(N3CCc4cccc(C(=O)Nc5nc6ccccc6s5)c4C3)nc2C(=O)O)cnn1CC12CC3(C)CC(C)(C1)CC(OCCNCCCP(=O)(O)O)(C3)C2 [Example 1.14, 6-[8-(1,3-benzothiazol-2-ylcarbamoyl)-3,4-dihydroisoquinolin-2 (1H)-yl]-3-{1-[(3,5-dimethyl-7-{2-[(3-phosphonopropyl)amino]ethoxy)tricyclo[3.3.1.1^3,7]dec-1-yl)methyl]-5-methyl-1H-pyrazol-4-yl}pyridine-2-carboxylic acid] | < 0.5 nM | 415 nM | 0.18 nM | < 0.001 nM | – | – |

Second part, led by results:

| EC50 ([1]; Homo sapiens, MOLT-4, 4 h) | EC50 ([2]; Homo sapiens, MOLT-4, 48 h) | Ki (Bcl-xL; [3]) | Ki (Bcl-xL; [4]) | SMILES | EC50 [1] | EC50 [2] |
| --- | --- | --- | --- | --- | --- | --- |
| 1 to 5 nM | 663 nM | 0.39 nM | 0.003 nM | Cc1c(-c2ccc(N3CCc4cccc(C(=O)Nc5nc6ccccc6s5)c4C3)nc2C(=O)O)cnn1CC12CC3(C)CC(C)(C1)CC(OCCNC(=O)[C@@H](N)CS(=O)(=O)O)(C3)C2 [Example 1.15, 6-[8-(1,3-benzothiazol-2-ylcarbamoyl)-3,4-dihydroisoquinolin-2 (1H)-yl]-3-{1-[(3,5-dimethyl-7-{2-[(3-sulfo-L-alanyl)amino]ethoxy}tricyclo[3.3.1.1^3,7]dec-1-yl)methyl]-5-methyl-1H-pyrazol-4-yl}pyridine-2-carboxylic acid] | – | – |
| < 0.5 nM | 257 nM | 0.2 nM | < 0.001 nM | Cc1c(-c2ccc(N3CCc4cccc(C(=O)Nc5nc6ccccc6s5)c4C3)nc2C(=O)O)cnn1CC12CC3(C)CC(C)(C1)CC(OCCN(C)C(=O)[C@@H](N)CS(=O)(=O)O)(C3)C2 [Example 1.13, 6-[8-(1,3-benzothiazol-2-ylcarbamoyl)-3,4-dihydroisoquinolin-2 (1H)-yl]-3-{1-[(3,5-dimethyl-7-{2-[methyl(3-sulfo-L-alanyl)amino]ethoxy}tricyclo[3.3.1.1^3,7]dec-1-yl)methyl]-5-methyl-1H-pyrazol-4-yl}pyridine-2-carboxylic acid] | – | – |
| < 0.5 nM | 68 nM | 0.00615 nM | < 0.001 nM | Cc1c(-c2ccc(N3CCc4c(OCCN)ccc(C(=O)Nc5nc6ccccc6s5)c4C3)nc2C(=O)O)cnn1CC12CC3(C)CC(C)(C1)CC(OCCN(C)CCS(=O)(=O)O)(C3)C2 [Example 1.46, 6-[5-(2-aminoethoxy)-8-(1,3-benzothiazol-2-ylcarbamoyl)-3,4-dihydroisoquinolin-2 (1H)-yl]-3-{1-[(3,5-dimethyl-7-{2-[methyl(2-sulfoethyl)amino]ethoxy}tricyclo[3.3.1.1^3,7]dec-1-yl)methyl]-5-methyl-1H-pyrazol-4-yl}pyridine-2-carboxylic acid] | – | – |
| < 0.5 nM | > 10000 nM | 7.11 nM | 0.006 nM | Cc1c(-c2ccc(N3CCc4cccc(C(=O)Nc5nc6cccnc6s5)c4C3)nc2C(=O)O)cnn1CC12CC3(C)CC(C)(C1)CC(OCCNCCS(=O)(=O)O)(C3)C2 [Example 1.22, 3-{1-[(3,5-dimethyl-7-{2-[(2-sulfoethyl)amino]ethoxy}tricyclo[3.3.1.1^3,7]dec-1-yl)methyl]-5-methyl-1H-pyrazol-4-yl}-6-[8-([1,3]thiazolo[5,4-b]pyridin-2-ylcarbamoyl)-3,4-dihydroisoquinolin-2 (1H)-yl]pyridine-2-carboxylic acid] | – | – |
| < 0.5 nM | 430 nM | 0.083 nM | < 0.001 nM | Cc1c(-c2ccc(N3CCc4cccc(C(=O)Nc5nc6ccccc6s5)c4C3)nc2C(=O)O)cnn1CC12CC3(C)CC(C)(C1)CC(OCCNCCC(=O)O)(C3)C2 [Example 1.25, 6-[8-(1,3-benzothiazol-2-ylcarbamoyl)-3,4-dihydroisoquinolin-2 (1H)-yl]-3-{1-[(3-{2-[(2-carboxyethyl)amino]ethoxy}-5,7-dimethyltricyclo[3.3.1.1^3,7]dec-1-yl)methyl]-5-methyl-1H-pyrazol-4-yl)pyridine-2-carboxylic acid] | – | – |
